Measurements: patent publication US6180637A, “1,2,5-trisubstituted 1,2-dihydroindazol-3-ones having anti-asthmatic, anti-allergic, anti-inflammatory, immunomodulating and neuroprotective action, process for their preparation and their use as medicaments” (Arzneimittelwerk Dresden GmbH, priority 1998, dated 2001)

Columns and labels:
human cyclophilin B = human cyclophilin B (Homo sapiens, UniProt P23284); experiment: Peptidylprolyl isomerase (PPIase) activity inhibition assay; assay type: biochemical; conditions: 10 μM compound; 10 nmol Cyp B, preincubated at 4° C. for 15 minutes; test peptide Suc-Ala-Ala-Pro-Phe-Nan
Sequence of human cyclophilin B (P23284 34-216): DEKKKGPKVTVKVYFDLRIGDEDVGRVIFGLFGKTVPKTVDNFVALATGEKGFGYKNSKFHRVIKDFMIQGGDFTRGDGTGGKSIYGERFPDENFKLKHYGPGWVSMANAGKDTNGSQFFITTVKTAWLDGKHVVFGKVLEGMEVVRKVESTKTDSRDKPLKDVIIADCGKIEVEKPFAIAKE
Method: For the initial screening (10 μmol/l), the inhibition of the human cyclophilin B in the PPIase test is determined.
Assay for the determination of the peptidylprolyl isomerase (PPIase) activity and inhibition
The PPIase activity is tested according to a globally customary enzyme test: G. Fischer, H. Bang, C. Mech, Biomed. Biochim. Acta 43 1101-1111; G. Fischer, H. Bang, A. Schellenberger, Biochim. Biophys. Acta 791 (1984), 87-97; D. H. Rich et al., J. Med. Chem. 38 (1995), 4164-4170.
The compounds of the general formula I according to the invention are preincubated at 4° C. for 15 minutes together with 10 nmol of Cyp B. The enzyme reaction is started using the test peptide Suc-Ala-Ala-Pro-Phe-Nan after addition of chymotrypsin and HEPES buffer. The extinction change at 390 nm is then monitored and evaluated. The photometrically determined extinction change results from two sub-reactions: a) the rapid chymotryptic cleavage of the trans-peptide; b) the non-enzymatic cis-trans isomerization, which is catalysed by cyclophilins.

[1] = test system: pulmonary eosinophil infiltration; experiment: Inhibition of late-phase eosinophilia 24 h after inhalational ovalbumin challenge in actively sensitized guinea-pigs; assay type: in vivo, guinea-pig; conditions: 2 × 30 mg/kg i.p. -2h/+4h, BAL 24 h after OVA challenge
Method: Inhibition of late-phase eosinophilia 24 h after inhalational ovalbumin challenge in actively sensitized guinea-pigs
The inhibition of pulmonary eosinophil infiltration by the substances is tested in an in vivo test on male Dunkin-Hartley guinea-pigs (200-250 g) sensitized against ovalbumin (OVA). The sensitization is carried out by means of two intraperitoneal injections of a suspension of 20 μg of OVA together with 20 mg of aluminium hydroxide as an adjuvant in 0.5 ml of physiological saline solution per animal on two successive days. 14 days after the second injection, the animals are pretreated with mepyramine maleate (10 mg/kg i.p.) in order to protect them from anaphylactic death. 30 minutes later, the animals are exposed for 30 sec in a plastic box to an OVA aerosol (0.5 mg/ml) which is generated by a nebulizer driven by compressed air (19.6 kPa) (allergen challenge). Control animals are nebulized with physiological saline solution. […] The eosinophils are stained using the Becton-Dickinson test kit (N. 5877) for eosinophils and counted in a Neubauer chamber. […]
The percentage inhibition of the eosinophilia of the test group treated with substance is calculated according to the following formula: […]

Row | Structure (SMILES) | inhibition at 10 µM (human cyclophilin B) [%] | Inhibition [%] of eosinophilia ([1]; OVA-sensitized guinea-pigs) [%] | Eosinophils million/animal x ± s, B ([1]; group B (test group treated with substance)) [million/animal]
1 | COc1ccc2c(c1)c(=O)n(Cc1cc([N+](=O)[O-])ccc1O)n2S(=O)(=O)c1ccc(C)cc1 [Example 2, 2-(2-hydroxy-5-nitrobenzyl)-5-methoxy-1-(toluene-4-sulphonyl)-1,2-dihydroindazol-3-one] | 50 | – | –
2 | COc1ccc(S(=O)(=O)n2c3ccc(OC)cc3c(=O)n2Cc2cc([N+](=O)[O-])ccc2O)cc1 [Example 1, 2-(2-Hydroxy-5-nitrobenzyl)-5-methoxy-1-(4-methoxybenzenesulphonyl)-1,2-dihydroindazol-3-one] | 70 | 97 | 0.51 ± 0.25
3 | COc1ccc2c(c1)c(=O)n(Cc1cc([N+](=O)[O-])ccc1O)n2S(=O)(=O)c1ccc(OC(F)(F)F)cc1 [Example 3, 2-(2-hydroxy-5-nitrobenzyl)-5-methoxy-1-(4-trifluoro-methoxybenzenesulphonyl)-1,2-dihydroindazol-3-one] | 93 | – | –

Further lines, with some results ahead:

Row | inhibition at 10 µM (human cyclophilin B) [%] | Structure (SMILES) | Inhibition [%] of eosinophilia ([1]; OVA-sensitized guinea-pigs) [%] | Eosinophils million/animal x ± s, B ([1]; group B (test group treated with substance)) [million/animal]
4 | 90 | COc1ccc2c(c1)c(=O)n(Cc1cc([N+](=O)[O-])ccc1O)n2S(=O)(=O)c1ccc(Cl)cc1 [Example 4, 2-(2-hydroxy-5-nitrobenzyl)-5-methoxy-1-(4-chloro-benzenesulphonyl)-1,2-dihydroindazol-3-one] | – | –
5 | 98 | CSc1ccc2c(c1)c(=O)n(Cc1cc([N+](=O)[O-])ccc1O)n2Cc1ccc(Cl)c(Cl)c1 [Example 26, 1-(3,4-Dichlorobenzyl)-2-(2-hydroxy-5-nitrobenzyl)-5-methylthio-1,2-dihydroindazol-3-one hydrate] | – | –
6 | 67 | COc1ccc2c(c1)c(=O)n(Cc1cc([N+](=O)[O-])ccc1O)n2S(=O)(=O)c1ccc(F)cc1 [Example 5, 1-(4-fluorobenzenesulphonyl)-2-(2-hydroxy-5-nitrobenzyl)-5-methoxy-1,2-dihydroindazol-3-one] | – | –
